# Results as given in ChEMBL document CHEMBL1201862, “PubChem BioAssay data set” (2004).
# The source made the active and inactive calls.
# Tests used:
# [1] = tested on: Streptococcus sp. 'group A'; assay: growth inhibition of control SK(-) GAS strain, dose response, counter-screen for streptokinase expression inhibitor project, luminescence, kanamycin, BacTiterGlo, confirmation (AID 1900); format: functional, organism-based
# Streptokinase A = molecular target: T1, Streptokinase A (Streptococcus pyogenes serotype M1, UniProt P10520); assay: S. pyogenes streptokinase expression inhibitors, potency, dose response, plasminogen activation absorbance, OD405 (AID 1914); format: functional, Streptococcus pyogenes M1 GAS;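 also: secreted streptokinase activity via plasminogen activation per viability signal from cell pellet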
# T1 sequence (P10520 whole entry): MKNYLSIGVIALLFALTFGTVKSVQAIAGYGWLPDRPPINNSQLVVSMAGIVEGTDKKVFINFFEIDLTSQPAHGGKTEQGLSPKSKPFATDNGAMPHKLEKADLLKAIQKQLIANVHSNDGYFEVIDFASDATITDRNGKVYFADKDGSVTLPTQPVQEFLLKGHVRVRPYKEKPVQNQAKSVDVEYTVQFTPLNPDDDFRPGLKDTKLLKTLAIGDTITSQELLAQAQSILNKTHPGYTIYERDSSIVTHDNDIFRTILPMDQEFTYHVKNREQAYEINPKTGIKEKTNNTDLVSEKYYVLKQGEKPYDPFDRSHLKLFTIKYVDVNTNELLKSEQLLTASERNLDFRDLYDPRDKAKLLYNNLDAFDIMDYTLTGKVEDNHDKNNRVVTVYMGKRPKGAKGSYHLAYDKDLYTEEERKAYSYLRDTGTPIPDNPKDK
# [2] = inhibitors of intracellular T. cruzi replication, confirmation, NIH3T3 host cells, beta-gal luminescence (AID 2044); format: functional, cell-based;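 also: intracellular parasites grown in NIH/3T3 mouse fibroblasts as host cells; luminescent beta-galactosidase reporter signal from transgenic T. cruzi replicating inside host cells; inhibitors lower the luminescence signal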
# [3] = cytotoxicity toward NIH3T3 fibroblasts, dose response, counter-screen, cell-based, ATP luminescence, mouse fibroblasts (AID 2010); format: functional;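 also: cells exposed to compound for about 90 hours before reading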
# Streptococcus = assay: Group A Streptococcus viability loss, dose response, counter-screen for streptokinase expression inhibitor project, luminescence, BacTiterGlo (AID 1915); format: functional, organism-based;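 also: potency for reduction of bacterial viability or growth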
# [4] = Luminescence Cell-Based Dose Retest to Confirm Inhibitors of Cancer Stem Cells. [Related pubchem assays (depositor defined):AID2717, AID2721]; format: functional; settings: Homo sapiens
# [5] = molecular target: T2, Microphthalmia-associated transcription factor (Homo sapiens, UniProt O75030); assay: TRPM1 promoter luciferase signal decrease, dose response, MITF inhibitor project, cell-based, SK-MEL-5, cherry-picked, set 3 (AID 493073); format: functional
# T2 sequence (O75030 whole entry): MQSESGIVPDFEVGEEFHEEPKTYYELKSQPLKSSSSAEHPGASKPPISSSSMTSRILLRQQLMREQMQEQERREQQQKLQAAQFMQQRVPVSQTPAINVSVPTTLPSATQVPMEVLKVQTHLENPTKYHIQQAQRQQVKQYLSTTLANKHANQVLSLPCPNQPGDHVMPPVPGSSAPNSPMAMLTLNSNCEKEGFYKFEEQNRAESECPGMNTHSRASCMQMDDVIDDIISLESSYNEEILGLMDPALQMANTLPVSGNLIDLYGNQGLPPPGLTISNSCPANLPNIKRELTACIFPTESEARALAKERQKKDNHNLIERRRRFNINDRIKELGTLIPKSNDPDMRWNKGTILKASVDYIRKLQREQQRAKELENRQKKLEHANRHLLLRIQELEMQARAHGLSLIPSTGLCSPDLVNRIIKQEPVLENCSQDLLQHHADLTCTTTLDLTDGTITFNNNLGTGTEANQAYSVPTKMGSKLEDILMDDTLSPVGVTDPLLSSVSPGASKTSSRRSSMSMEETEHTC
# A-375 [6] = assay: MITF: Counter assay: A375 proliferation Measured in Cell-Based System Using Plate Reader - 2084-03_Inhibitor_Dose_DryPowder_Activity. [Related pubchem assays (depositor defined):AID488944]; format: functional; settings: Homo sapiens
# A-375 [7] = assay: A375 melanoma cell viability reduction, dose response, counter-screen for MITF modulator project, cherry-pick samples, set 2 (AID 540335); format: functional, cell-based; settings: Homo sapiens
# [8] = molecular target: T3, Endoribonuclease toxin MazF (Escherichia coli K-12, UniProt P0AE70); assay: MazF endoribonuclease activators, SAR follow-up, biochemical, fluorescence, single-stranded RNA substrate (AID 588603); format: functional
# T3 sequence (P0AE70 whole entry): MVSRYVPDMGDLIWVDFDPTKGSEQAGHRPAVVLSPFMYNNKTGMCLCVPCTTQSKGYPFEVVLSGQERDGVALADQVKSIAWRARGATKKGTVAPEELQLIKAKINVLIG
# [9] = molecular target: T3, Endoribonuclease toxin MazF; assay: MazF toxin RNase activators, dose response, biochemical, fluorescence, single-stranded RNA substrate, uHTS hits (AID 588481); format: functional
# MEF = assay: SAR analysis of small molecule cytotoxicity of MazEF TA System activators in embryonic fibroblast (MEF) cells. [Related pubchem assays (depositor defined):AID504720, AID504743]; format: functional; settings: Mus musculus
# [10] = molecular target: T3, Endoribonuclease toxin MazF; assay: SAR analysis of small molecule activators of the MazEF TA System via a fluorescence-based single-stranded RNase assay counterscreen. [Related pubchem assays (depositor defined):AID504720, AID504743]; format: functional
# [11] = molecular target: T3, Endoribonuclease toxin MazF; assay: fluorescent RNA oligo signal without MazF, dose response, counter-screen for MazEF activator project, biochemical, fluorescence, single-stranded RNase substrate (AID 588502); format: functional
# Candida albicans [12] = assay: growth inhibition of resistant C. albicans, dose response, CaCi-8 strain, fluconazole, dry powder, set 4 (AID 488950); format: functional, organism-based
# Candida albicans [13] = assay: fluconazole resistance reversal in C. albicans, dose response, CaCi-2 strain, Alamar Blue, dry powder, set 4 (AID 488943); format: functional, organism-based
# Candida albicans [14] = assay: growth inhibition of azole-resistant C. albicans, dose response, CaCi-8 strain, Alamar Blue, dry powder, set 3 (AID 488905); format: functional, organism-based
# Candida albicans [15] = assay: reversal of fluconazole resistance in C. albicans, dose response, CaCi-2 strain, Alamar Blue, dry powder, set 3 (AID 488907); format: functional, organism-based
# Candida albicans [16] = assay: Candida albicans growth inhibition, agent alone, dose response, counter-screen for reversing antifungal drug resistance, CaCi-2 strain, no fluconazole, dry powder, set 4 (AID 488932); format: functional, organism-based
# Phospholipase D1 [17] = molecular target: T4, Phospholipase D1 (Homo sapiens, UniProt Q13393); assay: PLD1 inhibitor potency in cells, dose response (AID 602151); format: functional;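 also: cellular PLD1 assay in Calu-1 cells stimulated with PMA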
# Phospholipase D2 [18] = molecular target: T5, Phospholipase D2 (Homo sapiens, UniProt O14939); assay: PLD2 inhibitor potency in cells, dose response (AID 602147); format: functional;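 also: cellular assay in HEK293 cells overexpressing GFP-tagged PLD2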
# Phospholipase D1 [19] = molecular target: T4, Phospholipase D1; assay: PLD1 purified enzyme concentration response. [Related pubchem assays (depositor defined):AID588854]; format: functional
# Phospholipase D2 [20] = molecular target: T5, Phospholipase D2; assay: PLD2 purified enzyme concentration response. [Related pubchem assays (depositor defined):AID588854]; format: functional
# INS1 [21] = assay: protection of INS-1E cells from cytokine death, dose response, ATP luminescence, dry powder (AID 488844); format: functional, cell-based; settings: Rattus norvegicus
# [22] = inhibitors of cytokine-induced nitrite release, dose response, cell-based, Griess absorbance, INS-1E, dry powder, set 3 (AID 488870); format: functional; settings: Rattus norvegicus
# INS1 [23] = assay: inhibitors of cytokine-induced nitrite release, dose response, cell-based, Griess absorbance, INS-1E, dry powder (AID 488866); format: functional; settings: Rattus norvegicus
# INS1 [24] = assay: inhibitors of cytokine-induced nitrite release, dose response, cell-based, Griess absorbance, INS-1E, dry powder, set 2 (AID 488868); format: functional; settings: Rattus norvegicus
# [25] = molecular target: Sphingosine 1-phosphate receptor 1 (Homo sapiens, UniProt P21453); assay: Late-stage fluorescence-based dose-response cell-based counterscreen assay to identify agonists of the Sphingosine 1-Phosphate Receptor 4 (S1P4): Sphingosine 1-Phosphate Receptor 1 (S1P1) agonist assay Set 2.; format: functional
# [26] = molecular target: Sphingosine 1-phosphate receptor 5 (Homo sapiens, UniProt Q9H228); assay: S1P5 receptor agonists, human, late-stage follow-up, counter-screen for S1P4 agonist project, cell-based, fluorescence, set 2 (AID 504867); format: functional
# [27] = molecular target: Sphingosine 1-phosphate receptor 3 (Homo sapiens, UniProt Q99500); assay: Late-stage fluorescence-based dose-response cell-based counterscreen assay to identify agonists of the Sphingosine 1-Phosphate Receptor 4 (S1P4): Sphingosine 1-Phosphate Receptor 3 (S1P3) agonist assay Set 2.; format: functional
# cells [28] = format: functional, cell-based
# cells [29] = format: functional, cell-based; remark: listed apart in the source
# HEK293 = assay: cells; format: functional, cell-based; settings: Homo sapiens
# [30] = molecular target: Nuclear receptor subfamily 0 group B member 1 (Homo sapiens, UniProt P51843); assay: Luminescence-based cell-based high throughput dose response assay for inhibitors of the orphan nuclear receptor subfamily 0, group B, member 1 (DAX1; NR0B1). [Related pubchem assays (depositor defined):AID504766, AID504790]; format: functional
# [31] = molecular target: T6, Oxysterols receptor LXR-beta (Homo sapiens, UniProt P55055); format: functional, cell-based;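 also: agonist activity at LXR measured by a cell-based luminescence readout across a dose range, run as a counterscreen for daf-12 agonists; HEK293 cells with Gal4-LXR fusion and GAL4-driven luciferase reporter; potency for activation of Gal4-LXR reporter so compounds are agonists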
# T6 sequence (P55055 whole entry): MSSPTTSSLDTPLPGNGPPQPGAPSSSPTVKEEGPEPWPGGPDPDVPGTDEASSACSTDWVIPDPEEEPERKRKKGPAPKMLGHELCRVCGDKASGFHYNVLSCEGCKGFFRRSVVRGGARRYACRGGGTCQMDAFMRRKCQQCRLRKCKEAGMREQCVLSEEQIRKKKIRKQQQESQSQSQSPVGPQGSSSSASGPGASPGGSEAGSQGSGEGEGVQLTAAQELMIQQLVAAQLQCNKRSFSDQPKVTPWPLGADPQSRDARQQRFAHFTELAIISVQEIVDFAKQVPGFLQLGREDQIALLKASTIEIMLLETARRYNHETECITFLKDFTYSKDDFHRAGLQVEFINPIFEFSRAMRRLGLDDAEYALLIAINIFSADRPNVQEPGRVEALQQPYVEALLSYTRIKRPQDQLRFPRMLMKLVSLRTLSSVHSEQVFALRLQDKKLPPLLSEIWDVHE
# [32] = Concentration-dependent survival of SW480 colon cancer line, luminescence detection with CellTiter-Glo, half-maximal inhibitory concentration (AID 1117338); format: functional
# [33] = RKO cell viability reduction, dose response, CellTiter-Glo luminescence (AID 1117322); format: functional
# [34] = cytotoxicity toward HCT116 cells – cell-based, CellTiter-Glo luminescence, IC50, dose response (AID 1117332); format: functional; settings: HCT-116
# [35] = SNU-C1 cell viability reduction, dose response, CellTiter-Glo luminescence (AID 1117323); format: functional, cell-based
# [36] = cytotoxicity toward Colo320 cells – cell-based, CellTiter-Glo luminescence, IC50, dose response (AID 1117334); format: functional; settings: COLO 320
# [37] = cytotoxicity toward HT-29 cells – cell-based, CellTiter-Glo luminescence, IC50, dose response (AID 1117330); format: functional
# [38] = CellTiter-Glo luminescent dose response of DLD-1 viability loss (AID 1117352); format: functional
# [39] = HCT116 cell viability decrease, GSK3B pretreatment – CellTiter-Glo, IC50, dose response (AID 1117339); format: functional; settings: HCT-116
# T5 sequence (O14939 whole entry): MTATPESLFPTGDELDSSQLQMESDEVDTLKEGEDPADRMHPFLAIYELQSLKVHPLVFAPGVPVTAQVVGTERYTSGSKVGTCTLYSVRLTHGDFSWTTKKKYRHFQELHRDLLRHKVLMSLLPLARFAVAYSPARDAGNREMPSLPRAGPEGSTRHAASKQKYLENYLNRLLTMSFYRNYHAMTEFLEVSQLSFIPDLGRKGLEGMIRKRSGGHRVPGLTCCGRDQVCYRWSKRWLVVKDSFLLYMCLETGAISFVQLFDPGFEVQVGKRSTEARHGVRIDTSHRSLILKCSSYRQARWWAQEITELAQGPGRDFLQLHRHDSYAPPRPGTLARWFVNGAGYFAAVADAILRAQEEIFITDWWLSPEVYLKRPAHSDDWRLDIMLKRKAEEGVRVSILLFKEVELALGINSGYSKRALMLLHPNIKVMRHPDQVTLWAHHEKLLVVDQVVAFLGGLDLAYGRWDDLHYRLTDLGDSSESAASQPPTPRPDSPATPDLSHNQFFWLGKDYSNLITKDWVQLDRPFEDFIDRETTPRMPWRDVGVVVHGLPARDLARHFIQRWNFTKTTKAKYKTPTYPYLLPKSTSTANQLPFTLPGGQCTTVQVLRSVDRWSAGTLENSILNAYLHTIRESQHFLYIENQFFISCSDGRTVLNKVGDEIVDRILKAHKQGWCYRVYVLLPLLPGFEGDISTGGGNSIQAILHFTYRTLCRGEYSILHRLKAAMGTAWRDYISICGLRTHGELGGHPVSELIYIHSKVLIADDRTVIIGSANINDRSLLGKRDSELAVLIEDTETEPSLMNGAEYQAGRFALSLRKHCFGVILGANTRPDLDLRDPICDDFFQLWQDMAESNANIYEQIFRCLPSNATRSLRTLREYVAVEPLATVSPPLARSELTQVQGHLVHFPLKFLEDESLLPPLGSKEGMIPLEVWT
# T4 sequence (Q13393 whole entry): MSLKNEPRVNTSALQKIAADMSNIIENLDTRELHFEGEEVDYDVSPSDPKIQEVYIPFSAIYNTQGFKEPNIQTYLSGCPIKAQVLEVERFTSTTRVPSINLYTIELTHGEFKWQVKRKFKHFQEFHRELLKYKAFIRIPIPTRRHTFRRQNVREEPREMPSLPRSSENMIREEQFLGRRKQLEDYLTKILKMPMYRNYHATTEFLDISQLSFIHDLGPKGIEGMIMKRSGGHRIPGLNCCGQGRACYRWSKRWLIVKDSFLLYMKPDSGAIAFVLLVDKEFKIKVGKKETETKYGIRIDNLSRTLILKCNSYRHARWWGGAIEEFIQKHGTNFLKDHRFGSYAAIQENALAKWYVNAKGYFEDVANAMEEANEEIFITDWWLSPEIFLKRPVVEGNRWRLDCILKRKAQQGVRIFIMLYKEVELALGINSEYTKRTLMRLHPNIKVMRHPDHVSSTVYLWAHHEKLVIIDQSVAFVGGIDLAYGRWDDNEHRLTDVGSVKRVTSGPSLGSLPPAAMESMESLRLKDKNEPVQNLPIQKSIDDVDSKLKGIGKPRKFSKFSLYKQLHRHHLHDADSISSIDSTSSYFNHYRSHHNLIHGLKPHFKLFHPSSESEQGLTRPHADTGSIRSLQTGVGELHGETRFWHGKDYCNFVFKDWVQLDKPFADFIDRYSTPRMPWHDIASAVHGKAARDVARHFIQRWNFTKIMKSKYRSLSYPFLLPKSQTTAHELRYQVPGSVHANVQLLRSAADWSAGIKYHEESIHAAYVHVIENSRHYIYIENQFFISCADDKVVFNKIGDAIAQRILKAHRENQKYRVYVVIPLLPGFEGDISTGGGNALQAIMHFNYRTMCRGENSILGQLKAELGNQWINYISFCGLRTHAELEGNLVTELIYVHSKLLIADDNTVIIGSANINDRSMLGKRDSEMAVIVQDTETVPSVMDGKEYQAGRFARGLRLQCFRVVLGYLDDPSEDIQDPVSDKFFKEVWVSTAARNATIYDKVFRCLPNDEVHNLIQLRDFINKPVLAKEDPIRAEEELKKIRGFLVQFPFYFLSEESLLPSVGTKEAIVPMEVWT
# Chain of Sphingosine 1-phosphate receptor 3 (Q99500 whole entry): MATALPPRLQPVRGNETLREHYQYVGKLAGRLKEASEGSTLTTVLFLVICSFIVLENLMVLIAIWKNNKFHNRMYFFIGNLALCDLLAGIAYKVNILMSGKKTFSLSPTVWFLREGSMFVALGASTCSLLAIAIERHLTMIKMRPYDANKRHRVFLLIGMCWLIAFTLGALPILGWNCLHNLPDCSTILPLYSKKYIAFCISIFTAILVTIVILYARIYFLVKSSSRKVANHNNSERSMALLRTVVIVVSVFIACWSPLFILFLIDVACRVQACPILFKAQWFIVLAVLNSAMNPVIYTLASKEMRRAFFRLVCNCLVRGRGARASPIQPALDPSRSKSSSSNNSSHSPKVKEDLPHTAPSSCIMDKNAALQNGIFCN
# Chain of Sphingosine 1-phosphate receptor 5 (Q9H228 whole entry): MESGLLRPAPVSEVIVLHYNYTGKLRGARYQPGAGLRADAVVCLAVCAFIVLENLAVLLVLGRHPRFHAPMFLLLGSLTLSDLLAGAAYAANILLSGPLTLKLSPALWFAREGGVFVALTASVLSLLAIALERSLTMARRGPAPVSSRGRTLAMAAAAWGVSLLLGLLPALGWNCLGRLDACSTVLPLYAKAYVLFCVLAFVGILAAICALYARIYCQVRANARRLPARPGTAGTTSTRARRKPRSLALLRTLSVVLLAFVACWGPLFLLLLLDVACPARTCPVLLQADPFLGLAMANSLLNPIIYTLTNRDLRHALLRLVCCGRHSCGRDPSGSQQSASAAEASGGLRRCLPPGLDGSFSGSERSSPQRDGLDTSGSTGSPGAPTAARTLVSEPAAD
# Chain of Nuclear receptor subfamily 0 group B member 1 (P51843 whole entry, the tested form may be a part): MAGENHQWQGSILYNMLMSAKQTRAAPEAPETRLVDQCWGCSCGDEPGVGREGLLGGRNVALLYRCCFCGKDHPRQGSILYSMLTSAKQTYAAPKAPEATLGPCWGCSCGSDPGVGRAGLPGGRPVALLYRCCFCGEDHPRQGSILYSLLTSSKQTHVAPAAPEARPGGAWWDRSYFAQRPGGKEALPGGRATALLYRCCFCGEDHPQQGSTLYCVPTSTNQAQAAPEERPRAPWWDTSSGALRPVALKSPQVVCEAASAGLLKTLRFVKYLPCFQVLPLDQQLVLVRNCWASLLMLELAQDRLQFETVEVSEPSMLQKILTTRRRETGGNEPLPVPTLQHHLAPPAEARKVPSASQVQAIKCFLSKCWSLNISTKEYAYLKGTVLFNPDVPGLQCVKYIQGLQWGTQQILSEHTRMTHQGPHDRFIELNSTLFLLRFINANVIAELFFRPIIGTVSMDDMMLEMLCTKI
# Chain of Sphingosine 1-phosphate receptor 1 (P21453 whole entry): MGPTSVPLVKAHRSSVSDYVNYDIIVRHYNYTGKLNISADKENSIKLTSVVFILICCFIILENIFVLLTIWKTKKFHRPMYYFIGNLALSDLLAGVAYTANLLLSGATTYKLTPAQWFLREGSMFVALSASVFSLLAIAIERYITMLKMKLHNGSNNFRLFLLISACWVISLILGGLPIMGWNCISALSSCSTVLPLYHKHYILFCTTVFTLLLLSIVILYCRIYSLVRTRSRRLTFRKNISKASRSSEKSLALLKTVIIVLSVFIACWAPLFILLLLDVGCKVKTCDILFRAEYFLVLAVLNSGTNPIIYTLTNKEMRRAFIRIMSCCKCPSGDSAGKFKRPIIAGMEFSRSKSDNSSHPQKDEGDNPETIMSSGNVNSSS
smiles,measurement,setting,value
O=C(Nc1cccc(Cl)c1)Nc1cc(S(=O)(=O)N2CCCCC2)ccc1Cl,EC50,[1],11.8 µM (active)
same,EC50,Streptokinase A,4.59 µM (active)
same,EC50,[2],1.91 µM (active)
same,EC50,[3],> 60 µM (not active)
same,EC50,Streptococcus,26.6 µM (active)
same,AC50,[4],2.59 µM (active)
same,AC50,[5],12 µM (active)
same,AC50,A-375 [6],> 11 µM (active)
same,AC50,A-375 [7],> 11 µM (active)
CCC(C)NC(=O)c1ccc(CNS(=O)(=O)c2ccc3c(c2)C(C)(C)C(=O)N3C)cc1 (centres undefined),EC50,[8],21.8 µM (inactive)
same,EC50,[9],15.9 µM (active)
same,CC50,MEF,> 99 µM (inactive)
same,EC50,[10],> 99 µM (inactive)
same,EC50,[11],> 99 µM (inactive)
O=C(c1ccc(Cl)cc1)N1CCN(c2nccs2)CC1,AC50,Candida albicans [12],3.77 µM (active)
same,AC50,Candida albicans [13],3.24 µM (active)
same,AC50,Candida albicans [14],20 µM (active)
same,AC50,Candida albicans [15],0.555 µM (active)
same,AC50,Candida albicans [16],195 µM (active)
O=C(NCCN1CCC(n2c(=O)[nH]c3ccccc32)CC1)c1cc2ccccc2c2ccccc12,IC50,Phospholipase D1 [17],0.016 µM (active)
same,IC50,Phospholipase D2 [18],0.42 µM (active)
C[C@@H](CN1CCC2(CC1)C(=O)NCN2c1ccccc1)NC(=O)c1ccc(F)c(F)c1,IC50,Phospholipase D2 [18],0.21 µM (active)
same,IC50,Phospholipase D1 [19],2.15 µM (active)
same,IC50,Phospholipase D2 [20],2.22 µM (active)
COc1ccc(S(=O)(=O)N(C)C[C@@H]2Oc3c(NC(=O)Nc4cccc5ccccc45)cccc3C(=O)N([C@@H](C)CO)C[C@H]2C)c(OC)c1,AC50,INS1 [21],45.5 µM (active)
same,AC50,[22],27.7 µM (active)
same,AC50,INS1 [23],74.1 µM (active)
same,AC50,INS1 [24],> 260 µM (inactive)
CC/N=C1/SC(=Cc2cc(C)n(Cc3ccccc3OC)c2C)C(=O)N1CC,EC50,[25],0.18 µM (active)
same,EC50,[26],0.106 µM (active)
same,EC50,[27],13.7 µM (inactive)
Nc1ccc(C(=O)Nc2ccccc2N)cc1 [DINALINE],EC50,cells [28],18.7 µM (active)
same,EC50,cells [29],> 350 µM (not active)
same,IC50,HEK293,0.255 µM (active)
same,IC50,[30],19.8 µM (inactive)
same,EC50,[31],> 67.6 µM (inactive)
same,IC50,[32],> 20 µM (inactive)
same,IC50,[33],> 20 µM (inactive)
same,IC50,[34],> 6.67 µM (inactive)
same,IC50,[35],> 20 µM (inactive)
same,IC50,[36],> 20 µM (inactive)
same,IC50,[37],> 20 µM (inactive)
same,IC50,[38],> 20 µM (inactive)
same,IC50,[39],12.9 µM (inactive)
